# Data reported in patent US20250367171A1, “THERAPEUTIC OR PROPHYLACTIC AGENT FOR PERIPHERAL NEUROPATHIES” (Toray Industries, Inc., priority 2017, published 2025).
# Experiments:
# [1] = tested on: rat experimental autoimmune neuritis (EAN) model; assay: Mechanical allodynia (von Frey test) in rat EAN model; type: in vivo; conditions: day 14, 3 hours after administration, vs vehicle group
# Description: EAN model rats were prepared in a manner similar to Example 9. Further, a pseudo-induction animal was prepared by administering physiological saline (Otsuka Pharmaceutical Factory, Inc.) instead of a peptide solution for administration. The day of administration of the peptide solution for administration or physiological saline was designated as day 0 after induction of pathological conditions.
# On day 14 after induction of pathological conditions, compound 1 (5 or 10 mg/kg) or a solvent thereof (water for injection) was orally administered to rats. Groups were composed of 4 groups: a pseudo-induction and solvent administration group (sham group); a pathological condition-induced and solvent administration group (vehicle group); a pathological condition-induced and compound 1 (5 mg/kg) administration group (compound 1 (5 mg/kg) group); and a pathological condition-induced and compound 1 (10 mg/kg) administration group (compound 1 (10 mg/kg) administration group).
# Beneficial effects on mechanical allodynia were evaluated in a manner similar to Example 5, and this evaluation was performed at 3 hours after administration of compound 1 on day 14 after induction of pathological conditions.
# [2] = tested on: rat streptozotocin-induced diabetes model; assay: Mechanical allodynia (von Frey test) in rat streptozotocin-induced diabetes model; type: in vivo; conditions: day 28, 3 hours after administration, vs vehicle group
# Description: Streptozotocin (50 mg/kg, Sigma-Aldrich) was administered intravenously to SD rats (6 weeks old, male; CHARLES RIVER LABORATORIES JAPAN, INC.) via the tail vein, thereby preparing a streptozotocin-induced diabetes model. Streptozotocin was dissolved in physiological saline (Otsuka Pharmaceutical Factory, Inc.) to prepare a 25 mg/mL solution and then administered. Further, a pseudo-induction animal was also prepared by administering physiological saline instead of the streptozotocin solution. The initial day of administration was designated as day 0 after induction of pathological conditions.
# […] Groups were composed of 4 groups: a pseudo-induction and solvent administration group (sham group); a pathological condition-induced and solvent administration group (vehicle group); a pathological condition-induced and compound 1 (10 mg/kg) administration group (compound 1 (10 mg/kg) group); and a pathological condition-induced and compound 1 (30 mg/kg) administration group (compound 1 (30 mg/kg) group).
# Beneficial effects on mechanical allodynia were evaluated in a manner similar to Example 5, and this evaluation was performed at 3 hours after administration of compound 1 on day 28 after induction of pathological conditions.
# [3] = tested on: fetal rat dorsal root ganglion-derived established neuronal cell line ND15; assay: Protective effect on cisplatin-induced cell damage (alamarBlue cell viability), simultaneous treatment; type: cell-based; conditions: ND15 cells, cisplatin 50 μM 4 hours, simultaneous treatment with compound 1 at 0.5, 5 or 50 μM
# Description: A fetal rat dorsal root ganglion-derived established neuronal cell line ND15 was cultured in 10% FBS-containing DMEM. On the next day, the cells were cultured in 10% FBS-containing DMEM containing EC23 (10 μM, Reinner) for 8 days, for differentiation into neurons.
# The medium was exchanged with DMEM/F12 medium containing cisplatin (final concentration of 50 μM) followed by 4 hours of culture, thereby inducing cell injury. Compound 1 was contained in the medium (final concentration of 0.5, 5 or 50 μM) for treatment, in a manner similar to that for cisplatin. Groups were composed of 6 groups: an untreated group, a 50 μM compound 1 treatment group (the group treated with 50 μM compound 1), a cisplatin treatment group, a cisplatin and 0.5 μM compound 1 treatment group (the group treated with cisplatin and 0.5 μM compound 1), a cisplatin and 5 μM compound 1 treatment group, and a cisplatin and 50 μM compound 1 treatment group.
# For measurement of cell viability, the medium was exchanged with DMEM/F12 medium containing alamarBlue (Invitrogen), followed by 2 hours of culture, and then the absorbance at wavelength of 570 nm and the absorbance at wavelength of 595 nm were measured. Cell viability was calculated using the ratio of the absorbance at wavelength of 570 nm to the absorbance at wavelength of 595 nm and the untreated group designated as 100%.
# [4] = tested on: rat oxaliplatin-induced peripheral neuropathy model; assay: Mechanical allodynia (von Frey test) in rat oxaliplatin-induced peripheral neuropathy model; type: in vivo; conditions: day 18 after induction, vs vehicle group
# Description: Oxaliplatin (4 mg/kg, Elplat I.V. infusion solution […]; Yakult) was administered to SD rats (7 weeks old, male; CHARLES RIVER LABORATORIES JAPAN, INC.) in a cycle of 1 week (intraperitoneally administered twice, two consecutive days per week) for 2 or 3 weeks, thereby preparing an oxaliplatin-induced peripheral neuropathy model. As a control (pseudo-induction), a 5% glucose solution (Otsuka Pharmaceutical Factory, Inc.) was administered. The initial day of administration was designated as day 0 after induction of pathological conditions. […]
# Beneficial effects on mechanical allodynia were evaluated before induction of pathological conditions and on day 18 after induction of pathological conditions (before the 1st administration of compound 1). Beneficial effects on mechanical allodynia were evaluated by von Frey test. The test method was performed according to the method described in the known literature (Chaplan et al. Journal of Neuroscience Methods, 1994, Vol. 53, p. 55-63) using von Frey filaments (North Coast Medical) so that 50% response threshold was calculated.
# [5] = tested on: myelin basic protein (MBP) in co-culture of rat dorsal root ganglion neurons and Schwann cells; assay: Expression level of MBP in co-culture, Western blotting; type: cell-based; conditions: 30 μM, day 43 of culture, vs vehicle treatment group
# Description: In a manner similar to Example 3, co-culture of rat dorsal root ganglion neurons and Schwann cells was prepared, myelination was induced, and then treatment with compound 1 was performed. Groups were composed of 2 groups: a sterile distilled water treatment group (Vehicle treatment group); and a 30 μM compound 1 treatment group (compound 1 treatment group).
# For Western blotting, on day 43 from the initial day of cell culture, the co-culture was lysed in a RIPA cell lysis solution, and then the cell lysate was subjected to sodium dodecyl sulfate-polyacrylamide gel electrophoresis. Subsequently, the protein was transferred to a PVDF membrane, and then an MBP band was detected by antibody reaction. Image Lab software (BIO-RAD) was used for quantifying the thus detected band.
smiles,measurement,setting,value
"CN(C)C1CCN(C(=O)C[C@H](O)c2nccn2C)CC1 [Compound 1, (S)-1-(4-(dimethylamino)piperidin-1-yl)-3-hydroxy-3-(1-methyl-1H-imidazol-2-yl)propan-1-one]",50% response threshold in von Frey test (mechanical allodynia),[1]; 5 mg/kg oral single dose,Significant increases in 50% response threshold
same,50% response threshold in von Frey test (mechanical allodynia),[1]; 10 mg/kg oral single dose,Significant increases in 50% response threshold
same,50% response threshold in von Frey test (mechanical allodynia),[2]; 10 mg/kg oral single dose,significant increases in 50% response threshold
same,50% response threshold in von Frey test (mechanical allodynia),[2]; 30 mg/kg oral single dose,significant increases in 50% response threshold
same,cell viability (decrease caused by cisplatin),[3],suppressed decrease
same,50% response threshold in von Frey test (mechanical allodynia),[4]; 3 mg/kg oral twice a day,significant increase in 50% response threshold
same,50% response threshold in von Frey test (mechanical allodynia),[4]; 10 mg/kg oral twice a day,significant increase in 50% response threshold
same,myelin sheath marker protein MBP expression level,[5],"increases in the myelin sheath marker protein, MBP"
